Test results: ChEMBL document CHEMBL4028801, “A multifactorial approach to hepatobiliary transporter assessment enables improved therapeutic compound development” (Toxicol Sci, 2013)
Where a name gives a salt, the structure may show the parent alone.

How the values were obtained:
Bile salt export pump = Bile salt export pump (Homo sapiens, UniProt O95342); assay: Inhibition of human BSEP overexpressed in Sf9 cell membrane vesicles assessed as uptake of [3H]-taurocholate in presence of ATP measured after 15 to 20 mins by membrane vesicle transport assay; format: ADME, cell-based
Sequence of Bile salt export pump (O95342 whole entry): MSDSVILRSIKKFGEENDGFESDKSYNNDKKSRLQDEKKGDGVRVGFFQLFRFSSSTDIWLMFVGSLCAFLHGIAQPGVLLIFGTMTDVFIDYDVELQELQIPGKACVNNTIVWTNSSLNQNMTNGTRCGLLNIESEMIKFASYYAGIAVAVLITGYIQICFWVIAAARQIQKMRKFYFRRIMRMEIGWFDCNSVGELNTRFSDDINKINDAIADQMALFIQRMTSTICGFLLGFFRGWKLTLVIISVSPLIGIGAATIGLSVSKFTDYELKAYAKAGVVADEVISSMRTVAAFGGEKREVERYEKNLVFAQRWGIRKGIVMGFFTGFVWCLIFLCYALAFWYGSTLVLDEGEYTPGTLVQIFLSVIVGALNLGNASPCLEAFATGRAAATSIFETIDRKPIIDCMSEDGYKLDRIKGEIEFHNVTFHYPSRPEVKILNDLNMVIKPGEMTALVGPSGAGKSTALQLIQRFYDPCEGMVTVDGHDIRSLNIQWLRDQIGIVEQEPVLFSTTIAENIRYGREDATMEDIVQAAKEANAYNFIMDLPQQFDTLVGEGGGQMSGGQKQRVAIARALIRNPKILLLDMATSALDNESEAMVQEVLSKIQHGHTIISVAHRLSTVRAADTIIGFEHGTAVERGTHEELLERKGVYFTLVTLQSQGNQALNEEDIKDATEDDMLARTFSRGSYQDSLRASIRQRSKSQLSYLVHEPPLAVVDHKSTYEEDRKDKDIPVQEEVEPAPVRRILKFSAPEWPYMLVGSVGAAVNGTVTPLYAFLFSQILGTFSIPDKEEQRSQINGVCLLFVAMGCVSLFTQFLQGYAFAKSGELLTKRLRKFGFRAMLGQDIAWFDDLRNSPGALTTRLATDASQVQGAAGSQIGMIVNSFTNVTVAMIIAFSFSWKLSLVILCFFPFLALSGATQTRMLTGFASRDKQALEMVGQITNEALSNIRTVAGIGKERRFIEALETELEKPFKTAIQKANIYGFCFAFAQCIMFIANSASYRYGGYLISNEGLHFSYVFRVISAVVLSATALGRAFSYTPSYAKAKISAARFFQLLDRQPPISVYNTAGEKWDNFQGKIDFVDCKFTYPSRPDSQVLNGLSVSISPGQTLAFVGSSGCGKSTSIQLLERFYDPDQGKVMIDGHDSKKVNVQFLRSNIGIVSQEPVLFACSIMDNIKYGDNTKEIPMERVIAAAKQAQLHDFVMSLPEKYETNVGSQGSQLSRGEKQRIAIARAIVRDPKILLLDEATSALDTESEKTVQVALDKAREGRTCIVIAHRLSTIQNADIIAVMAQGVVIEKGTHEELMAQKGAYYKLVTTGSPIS

[1] = target: ATP-binding cassette sub-family C member 2 (Homo sapiens, UniProt Q92887); assay: Inhibition of human MRP2 overexpressed in Sf9 cell membrane vesicles assessed as uptake of [3H]-estradiol-17beta-D-glucuronide in presence of ATP and GSH measured after 20 mins by membrane vesicle transport assay
Sequence of ATP-binding cassette sub-family C member 2 (Q92887 whole entry): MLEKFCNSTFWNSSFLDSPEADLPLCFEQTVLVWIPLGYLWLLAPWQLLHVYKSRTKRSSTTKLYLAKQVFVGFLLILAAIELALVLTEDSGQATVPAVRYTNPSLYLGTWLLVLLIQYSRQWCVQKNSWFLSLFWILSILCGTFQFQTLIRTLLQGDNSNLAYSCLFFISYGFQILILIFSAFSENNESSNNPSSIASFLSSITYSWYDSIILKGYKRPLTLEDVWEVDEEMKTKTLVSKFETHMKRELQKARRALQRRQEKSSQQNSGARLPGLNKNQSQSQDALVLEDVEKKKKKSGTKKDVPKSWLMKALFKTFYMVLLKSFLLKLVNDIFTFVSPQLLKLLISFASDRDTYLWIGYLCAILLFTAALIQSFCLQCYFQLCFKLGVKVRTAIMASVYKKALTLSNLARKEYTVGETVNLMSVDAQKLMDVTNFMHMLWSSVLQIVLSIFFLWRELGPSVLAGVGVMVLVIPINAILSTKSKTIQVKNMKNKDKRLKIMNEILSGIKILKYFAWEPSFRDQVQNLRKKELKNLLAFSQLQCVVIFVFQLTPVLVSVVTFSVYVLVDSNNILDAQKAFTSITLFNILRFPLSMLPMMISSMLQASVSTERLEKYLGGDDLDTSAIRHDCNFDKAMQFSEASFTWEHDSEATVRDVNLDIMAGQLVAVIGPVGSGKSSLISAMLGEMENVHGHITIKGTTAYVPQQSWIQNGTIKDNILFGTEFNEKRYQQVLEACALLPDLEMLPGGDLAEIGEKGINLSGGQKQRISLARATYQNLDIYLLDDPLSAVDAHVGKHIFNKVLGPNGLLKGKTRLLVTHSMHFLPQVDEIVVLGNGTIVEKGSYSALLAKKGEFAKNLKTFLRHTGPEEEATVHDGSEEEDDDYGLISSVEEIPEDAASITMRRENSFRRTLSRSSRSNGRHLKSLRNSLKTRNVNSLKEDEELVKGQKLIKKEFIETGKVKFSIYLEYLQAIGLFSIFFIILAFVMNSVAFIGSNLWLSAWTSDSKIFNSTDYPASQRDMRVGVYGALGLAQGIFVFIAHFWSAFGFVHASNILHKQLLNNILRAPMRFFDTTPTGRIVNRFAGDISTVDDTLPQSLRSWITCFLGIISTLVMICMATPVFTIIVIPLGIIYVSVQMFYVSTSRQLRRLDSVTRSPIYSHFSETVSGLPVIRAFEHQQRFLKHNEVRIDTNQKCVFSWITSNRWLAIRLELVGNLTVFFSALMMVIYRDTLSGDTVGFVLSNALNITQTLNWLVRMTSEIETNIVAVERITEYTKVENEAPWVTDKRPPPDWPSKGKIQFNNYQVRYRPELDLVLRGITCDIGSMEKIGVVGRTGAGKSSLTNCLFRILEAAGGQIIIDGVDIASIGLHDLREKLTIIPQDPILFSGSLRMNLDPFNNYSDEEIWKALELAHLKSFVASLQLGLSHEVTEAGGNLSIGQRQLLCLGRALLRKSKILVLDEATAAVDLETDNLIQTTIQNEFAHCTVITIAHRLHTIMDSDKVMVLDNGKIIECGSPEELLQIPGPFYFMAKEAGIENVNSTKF

[2] = target: ATP-binding cassette sub-family C member 3 (Homo sapiens, UniProt O15438); assay: Inhibition of human MRP3 overexpressed in Sf9 insect cell membrane vesicles assessed as uptake of [3H]-estradiol-17beta-D-glucuronide in presence of ATP and GSH measured after 10 mins by membrane vesicle transport assay; format: ADME, cell-based
Sequence of ATP-binding cassette sub-family C member 3 (O15438 whole entry): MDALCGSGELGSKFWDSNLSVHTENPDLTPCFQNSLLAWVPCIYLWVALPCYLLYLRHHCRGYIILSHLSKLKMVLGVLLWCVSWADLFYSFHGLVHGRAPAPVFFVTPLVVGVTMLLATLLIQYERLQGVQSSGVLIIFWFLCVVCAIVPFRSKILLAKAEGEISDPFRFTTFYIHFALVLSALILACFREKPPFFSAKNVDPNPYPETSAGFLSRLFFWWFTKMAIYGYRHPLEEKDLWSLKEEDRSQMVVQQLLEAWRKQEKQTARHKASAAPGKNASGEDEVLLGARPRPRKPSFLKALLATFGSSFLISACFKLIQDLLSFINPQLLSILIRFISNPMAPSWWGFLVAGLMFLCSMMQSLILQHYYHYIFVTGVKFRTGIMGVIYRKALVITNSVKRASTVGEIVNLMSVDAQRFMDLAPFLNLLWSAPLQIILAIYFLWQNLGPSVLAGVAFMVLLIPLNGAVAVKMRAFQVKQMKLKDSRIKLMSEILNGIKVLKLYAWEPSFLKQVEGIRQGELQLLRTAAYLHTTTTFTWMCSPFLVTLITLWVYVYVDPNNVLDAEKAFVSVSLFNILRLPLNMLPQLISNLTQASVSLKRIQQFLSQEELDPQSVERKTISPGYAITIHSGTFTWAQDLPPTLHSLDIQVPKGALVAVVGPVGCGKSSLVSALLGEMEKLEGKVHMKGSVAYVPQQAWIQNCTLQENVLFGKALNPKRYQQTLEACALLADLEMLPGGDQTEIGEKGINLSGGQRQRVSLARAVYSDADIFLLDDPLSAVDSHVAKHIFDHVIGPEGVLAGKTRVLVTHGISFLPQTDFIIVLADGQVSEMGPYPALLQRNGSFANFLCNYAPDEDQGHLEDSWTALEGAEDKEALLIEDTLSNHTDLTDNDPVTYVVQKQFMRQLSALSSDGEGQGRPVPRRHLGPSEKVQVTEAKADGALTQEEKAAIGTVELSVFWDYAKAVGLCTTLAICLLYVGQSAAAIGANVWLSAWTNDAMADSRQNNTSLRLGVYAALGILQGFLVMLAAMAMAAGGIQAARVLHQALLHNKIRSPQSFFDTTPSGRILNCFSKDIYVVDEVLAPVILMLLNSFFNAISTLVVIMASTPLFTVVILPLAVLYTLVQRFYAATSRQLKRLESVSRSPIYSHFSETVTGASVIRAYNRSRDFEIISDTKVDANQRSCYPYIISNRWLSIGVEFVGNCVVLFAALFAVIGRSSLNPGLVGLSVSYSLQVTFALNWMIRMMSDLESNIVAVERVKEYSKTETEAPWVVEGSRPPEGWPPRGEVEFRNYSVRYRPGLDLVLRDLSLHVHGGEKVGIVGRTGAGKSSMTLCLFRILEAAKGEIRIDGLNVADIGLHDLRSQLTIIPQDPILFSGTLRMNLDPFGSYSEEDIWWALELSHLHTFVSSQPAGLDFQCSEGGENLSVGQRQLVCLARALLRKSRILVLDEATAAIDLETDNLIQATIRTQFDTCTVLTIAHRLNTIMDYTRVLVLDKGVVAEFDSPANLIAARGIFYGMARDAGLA

[3] = target: T1, ATP-binding cassette sub-family C member 4 (Homo sapiens, UniProt O15439); assay: Inhibition of human MRP4 overexpressed in Sf9 cell membrane vesicles assessed as uptake of [3H]-estradiol-17beta-D-glucuronide in presence of ATP and GSH measured after 20 mins by membrane vesicle transport assay; format: ADME, cell-based
T1 sequence (O15439 whole entry): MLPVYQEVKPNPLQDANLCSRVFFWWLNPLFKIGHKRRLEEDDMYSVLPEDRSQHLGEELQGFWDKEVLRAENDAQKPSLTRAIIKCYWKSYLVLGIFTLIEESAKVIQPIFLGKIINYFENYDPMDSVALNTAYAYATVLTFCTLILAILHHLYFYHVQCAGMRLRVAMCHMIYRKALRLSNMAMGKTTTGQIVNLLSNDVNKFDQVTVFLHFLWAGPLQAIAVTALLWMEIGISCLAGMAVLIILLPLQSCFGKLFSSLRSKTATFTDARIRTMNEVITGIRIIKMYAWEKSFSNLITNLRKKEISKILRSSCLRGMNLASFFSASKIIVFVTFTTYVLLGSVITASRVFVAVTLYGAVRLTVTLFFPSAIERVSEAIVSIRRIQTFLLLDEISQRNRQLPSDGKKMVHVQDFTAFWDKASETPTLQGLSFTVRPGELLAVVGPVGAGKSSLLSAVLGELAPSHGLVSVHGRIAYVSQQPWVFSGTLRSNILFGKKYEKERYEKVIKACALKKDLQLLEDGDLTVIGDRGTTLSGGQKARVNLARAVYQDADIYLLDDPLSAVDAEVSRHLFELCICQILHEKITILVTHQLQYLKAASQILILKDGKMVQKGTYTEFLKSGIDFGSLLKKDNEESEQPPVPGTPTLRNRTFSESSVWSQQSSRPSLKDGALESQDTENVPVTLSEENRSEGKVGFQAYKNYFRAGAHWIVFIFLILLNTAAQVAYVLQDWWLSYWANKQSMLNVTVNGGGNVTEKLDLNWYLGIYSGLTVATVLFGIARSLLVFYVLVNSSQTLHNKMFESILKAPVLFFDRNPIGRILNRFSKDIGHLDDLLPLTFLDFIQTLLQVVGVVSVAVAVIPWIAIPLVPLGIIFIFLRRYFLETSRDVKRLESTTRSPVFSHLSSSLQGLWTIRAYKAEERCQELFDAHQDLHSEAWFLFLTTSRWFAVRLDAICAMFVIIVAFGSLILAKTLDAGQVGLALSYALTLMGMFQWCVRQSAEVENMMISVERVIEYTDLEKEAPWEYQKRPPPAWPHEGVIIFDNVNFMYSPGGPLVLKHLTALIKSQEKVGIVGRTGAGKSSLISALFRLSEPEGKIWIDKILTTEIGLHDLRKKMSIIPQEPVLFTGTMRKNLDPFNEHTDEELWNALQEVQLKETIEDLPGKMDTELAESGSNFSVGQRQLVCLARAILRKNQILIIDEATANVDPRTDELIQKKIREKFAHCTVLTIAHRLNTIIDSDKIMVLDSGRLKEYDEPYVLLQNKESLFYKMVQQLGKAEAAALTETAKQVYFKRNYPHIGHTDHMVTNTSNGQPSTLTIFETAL

Compound: Nc1nc(=O)[nH]cc1F [FLUCYTOSINE]
- IC50 (Bile salt export pump): > 133 µM
- IC50 [1]: > 133 µM
- IC50 [2]: > 133 µM
- IC50 [3]: > 133 µM

Compound: c1ccc(C2(c3ccccc3)CC2C2=NCCN2)cc1 (stereo unspecified) [CIFENLINE]
- IC50 (Bile salt export pump): > 133 µM
- IC50 [1]: > 133 µM
- IC50 [2]: > 133 µM
- IC50 [3]: > 133 µM

Compound: O=C(CCCCCCC(=O)Nc1ccccc1)NO [VORINOSTAT]
- IC50 (Bile salt export pump): > 133 µM
- IC50 [1]: > 133 µM
- IC50 [2]: > 133 µM
- IC50 [3]: > 133 µM

Compound: CCC1(c2ccc(N)cc2)CCC(=O)NC1=O (stereo unspecified) [AMINOGLUTETHIMIDE]
- IC50 (Bile salt export pump): > 133 µM
- IC50 [1]: > 133 µM
- IC50 [2]: > 133 µM
- IC50 [3]: > 133 µM

Compound: CC(=O)O[C@H]1C[C@@H]2CC[C@@H]3[C@H](CC[C@@]4(C)[C@H]3C[C@H]([N+]3(C)CCCCC3)[C@@H]4OC(C)=O)[C@@]2(C)C[C@@H]1N1CCCCC1 [VECURONIUM BROMIDE]
- IC50 (Bile salt export pump): > 133 µM
- IC50 [1]: > 133 µM
- IC50 [2]: > 133 µM
- IC50 [3]: > 133 µM

Compound: Cc1onc(-c2ccccc2)c1-c1ccc(S(N)(=O)=O)cc1 [VALDECOXIB]
- IC50 (Bile salt export pump): > 133 µM
- IC50 [1]: > 133 µM
- IC50 [2]: > 133 µM
- IC50 [3]: > 133 µM

Compound: CCCCCNC(=N)N/N=C/c1c[nH]c2ccc(OC)cc12 [TEGASEROD MALEATE]
- IC50 (Bile salt export pump): > 133 µM
- IC50 [1]: > 133 µM
- IC50 [2]: > 133 µM
- IC50 [3]: > 133 µM

Compound: CN(C)CCC(c1ccc(Cl)cc1)c1ccccn1 (stereo unspecified) [CHLORPHENIRAMINE]
- IC50 (Bile salt export pump): > 133 µM
- IC50 [1]: > 133 µM
- IC50 [2]: > 133 µM
- IC50 [3]: > 133 µM

Compound: CC1=C(/C=C/C(C)=C/C=C/C(C)=C/C(=O)O)C(C)(C)CCC1 [TRETINOIN]
- IC50 (Bile salt export pump): > 133 µM
- IC50 [1]: > 133 µM
- IC50 [2]: > 133 µM
- IC50 [3]: > 133 µM

Compound: COc1ccc2cccc(CCNC(C)=O)c2c1 [AGOMELATINE]
- IC50 (Bile salt export pump): > 133 µM
- IC50 [1]: > 133 µM
- IC50 [2]: > 133 µM
- IC50 [3]: > 133 µM

Compound: C[C@H]1O[C@H](O[C@H]2[C@H](O)[C@@H](O)[C@@H](O[C@H]3[C@H](O)[C@@H](O)C(O)O[C@@H]3CO)O[C@@H]2CO)[C@H](O)[C@@H](O)[C@@H]1N[C@H]1C=C(CO)[C@@H](O)[C@H](O)[C@H]1O (stereo partly specified) [ACARBOSE]
- IC50 (Bile salt export pump): > 133 µM
- IC50 [1]: > 133 µM
- IC50 [2]: > 133 µM
- IC50 [3]: > 133 µM

Compound: Oc1ccc2c(c1)[C@@]13CCCC[C@@]1(O)[C@@H](C2)N(CC1CCC1)CC3 [BUTORPHANOL]
- IC50 (Bile salt export pump): > 133 µM
- IC50 [1]: > 133 µM
- IC50 [2]: > 133 µM
- IC50 [3]: > 133 µM

Compound: Nc1ccn([C@@H]2O[C@H](CO)[C@@H](O)C2(F)F)c(=O)n1 [GEMCITABINE HYDROCHLORIDE]
- IC50 (Bile salt export pump): > 133 µM
- IC50 [1]: > 133 µM
- IC50 [2]: > 133 µM
- IC50 [3]: > 133 µM

Compound: COC[C@@H](NC(C)=O)C(=O)NCc1ccccc1 [LACOSAMIDE]
- IC50 (Bile salt export pump): > 133 µM
- IC50 [1]: > 133 µM
- IC50 [2]: > 133 µM
- IC50 [3]: > 133 µM

Compound: COc1ccc(Cc2nccc3cc(OC)c(OC)cc23)cc1OC [PAPAVERINE]
- IC50 (Bile salt export pump): > 133 µM
- IC50 [1]: > 133 µM
- IC50 [2]: > 133 µM
- IC50 [3]: 23.1 µM

Compound: COc1ccc(CC2c3cc(OC)c(OC)cc3CC[N+]2(C)CCC(=O)OCCCCCOC(=O)CC[N+]2(C)CCc3cc(OC)c(OC)cc3C2Cc2ccc(OC)c(OC)c2)cc1OC (stereo unspecified) [ATRACURIUM BESYLATE]
- IC50 (Bile salt export pump): > 133 µM
- IC50 [1]: > 133 µM
- IC50 [2]: > 133 µM
- IC50 [3]: > 133 µM

Compound: CCn1cc(C(=O)O)c(=O)c2cc(F)c(N3CCNCC3)nc21 [ENOXACIN]
- IC50 (Bile salt export pump): > 133 µM
- IC50 [1]: > 133 µM
- IC50 [2]: > 133 µM
- IC50 [3]: > 133 µM

Compound: C[C@@H]1CCC[C@H](C)N1NC(=O)c1ccc(Cl)c(S(N)(=O)=O)c1 [CLOPAMIDE]
- IC50 (Bile salt export pump): > 133 µM
- IC50 [1]: > 133 µM
- IC50 [2]: > 133 µM
- IC50 [3]: > 133 µM

Compound: CC(C)[C@H](N)C(=O)OCCOCn1cnc2c(=O)[nH]c(N)nc21 [VALACYCLOVIR HYDROCHLORIDE]
- IC50 (Bile salt export pump): > 133 µM
- IC50 [1]: > 133 µM
- IC50 [2]: > 133 µM
- IC50 [3]: > 133 µM
